{
  "source": "patent US20240382484A1",
  "about": "“COMPOSITION FOR TREATING, PREVENTING, OR AMELIORATING MELANOMA AND METHOD THEREOF” (Thomas Jefferson University, priority 2021, published 2024)",
  "key": {"[1]": {"system": "human NRAS mutant melanoma cell lines", "test": "72 hours drug combination, cell density by IncuCyte, synergy by Combenefit with Loewe method", "format": "cell-based", "settings": "for synergy with MEKi (trametinib): WM1361A and WM1366 cells, 72 hours", "quoted_text": "FIG. 10A-10B: Cas9 expressed clone WM1361A-iCas9 #1 (FIG. 10A), and WM1366-iCas9 #11 (FIG. 10B) cells were treated for 72 hours as indicated with GSK2334470 and trametinib and analyzed for cell density by IncuCyte. Synergy graphs were generated utilizing Combenefit Software with Loewe method. Data are represented as the mean from three biological independent experiments.\nFIG. 11A: WM1361A, WM1366, SK-MEL-30 and SK-MEL-173 cells were treated for 72 hours as indicated with GSK2334470 and PD0325901 and analyzed for cell density by IncuCyte. Synergy graphs were generated utilizing Combenefit Software with Loewe method. Data are represented as the mean from three biological independent experiments. FIG. 11B: WM1361A, WM1366, SK-MEL-30 or SK-MEL-173 cells were treated with GSK2334470 (PDPK1i) and PD0325901 (PD901) alone or in combination (Comb) at the indicated concentrations for 7 days. Cell growth was monitored by IncuCyte every 2 hours. Data are represented as the mean±SEM of three biological independent experiments. p values were calculated with an unpaired two-tailed t test. n.s., not significant.\nFIG. 16A: WM1361A and WM1366 cells were treated for 72 hours with indicated inhibitors and analyzed for cell density by IncuCyte. Synergy graphs were generated utilizing Combenefit Software with Loewe method. Data are represented as the mean from three biological independent experiments.\nHuman WM1361A and WM1366 melanoma cell lines were cultured in MCDB153 (Sigma) with 2% FBS, 20% Leibowitz L-15 medium, and 5 μg/mL insulin (WM medium). Human SK-MEL-30 and SK-MEL-173 melanoma cell lines were cultured in RPMI-1640 with 10% FBS. […] All cells were cultured at 37° C. in a humidified atmosphere containing 5% CO2. […] Cell lines were STR analyzed, confirmed for NRAS/Nras mutation, and tested to be mycoplasma-free during experiments. For cell proliferation and drug response, cells were monitored by IncuCyte® (Essen Bioscience, Ann Arbor, MI) every 2 hours."}, "NRAS mutant melanoma": {"system": "NRAS mutant melanoma", "settings": "Phase III, NRAS mutant melanoma patients; cited from earlier work"}, "WM1361A-iCas9 #1 cells": {"system": "WM1361A-iCas9 #1 cells", "test": "Growth inhibition by single agents or combined inhibitors for 3 days, Bliss independence model", "format": "cell-based, human", "procedure": "FIGS. 1A-1H: CRISPR screen identifies PDPK1, in accordance with some embodiments. FIG. 1A: Workflow of the CRISPR-Cas9 screen for genes that are essential for cell survival or act as regulators of trametinib (MEKi) sensitivity and resistance in NRAS mutant melanoma WM1361A-iCas9 #1 cells. FIGS. 1B-1D: WM1361A-iCas9 #1 cells were transduced with the Guide-it CRISPR Genome-Wide sgRNA Library. After 3 days, mCherry positive cells were determined by FACS analysis (FIG. 1). On the 24th day post infection, the cells were treated with 20 nM trametinib for further 14 days (FIG. 1C) or 0.01-0.02 nM trametinib for further 28 days (FIG. 1D). The top enriched or depleted sgRNAs targeted genes are shown. FIG. 1E, The top depleted sgRNAs targeted genes before trametinib treatment. FIG. 1F: WM1361A-iCas9 #1 cells were treated with single agents or combined inhibitors for 3 days. The growth inhibition was shown as observed inhibition (left), or was calculated as Bliss independence model (middle). The synergistic or antagonist effects (right) were calculated as Observed inhibition %−Expected inhibition %. […]\nThe present study further analyzed druggable essential genes with high STARS scores (>2.14 of NRAS) in WM1361A-iCas9 cells which were also identified as therapeutic targets with high priority scores (>30) in NRAS mutant melanoma SK-MEL-2 cells in a published database. […]"}, "[2]": {"system": "mouse Nras mutant melanoma cell lines", "test": "72 hours drug combination, cell density by IncuCyte, synergy by Combenefit with Loewe method", "format": "cell-based", "settings": "two mouse lines (1007 and 1014), 3-day treatment", "procedure": "FIG. 2A: NRAS mutant melanoma cell line WM1361A, WM1366, SK-MEL-30, SK-MEL-173, 1007 and 1014 were treated for 72 hours as indicated with GSK2334470 and trametinib and analyzed for cell density by IncuCyte. Synergy graphs were generated utilizing Combenefit Software with Loewe method. Data are represented as the mean from three biological independent experiments. FIG. 2B: WM1361A, WM1366, SK-MEL-30 or SK-MEL-173 cells were treated with GSK2334470 (PDPK1i) and trametinib (tram) alone or in combination (comb) at the indicated concentrations for 7 days. Cell growth was monitored by IncuCyte every 2 hours. Media were replaced twice with drugs during culture. Data are represented as the mean±SEM of three biological independent experiments. p values were calculated with an unpaired two-tailed t test. n.s., not significant.\nTo further analyze synergistic effects, the growth response of a panel of several NRAS mutant cells to titrated PDPK1i (GSK2334470) and MEKi (trametinib) combinations was assessed.\nHuman WM1361A and WM1366 melanoma cell lines were cultured in MCDB153 (Sigma) with 2% FBS, 20% Leibowitz L-15 medium, and 5 μg/mL insulin (WM medium). […] Cell lines were STR analyzed, confirmed for NRAS/Nras mutation, and tested to be mycoplasma-free during experiments. For cell proliferation and drug response, cells were monitored by IncuCyte® (Essen Bioscience, Ann Arbor, MI) every 2 hours."}},
  "data": [
    {"smiles": "COc1ccc(-c2ccc3c(N4CCOC[C@@H]4C)nc(N4CCOC[C@@H]4C)nc3n2)cc1CO", "note": "[AZD8055]", "values": [
      {"measurement": "synergy with MEKi (trametinib)", "setting": "[1]", "result": "reduced synergy and even antagonistic effects"}
    ]},
    {"smiles": "Cn1cnc2c(F)c(Nc3ccc(Br)cc3F)c(C(=O)NOCCO)cc21", "note": "[Binimetinib, 5-((4-bromo-2-fluorophenyl)amino)-4-fluoro-N-(2-hydroxyethoxy)-1-methyl-1H-benzo[d]imidazole-6-carboxamide]", "values": [
      {"measurement": "progression-free survival over standard chemotherapy (dacarbazine)", "setting": "NRAS mutant melanoma", "result": "modest advantage"}
    ]},
    {"smiles": "Cc1nc(-c2cn3c(n2)-c2ccc(-c4cnn(C(C)(C)C(N)=O)c4)cc2OCC3)n(C(C)C)n1", "note": "[GDC-0032]", "values": [
      {"measurement": "synergy with MEKi (trametinib)", "setting": "[1]", "result": "synergy with trametinib comparable to those with PDPK1i"}
    ]},
    {"smiles": "CNc1nc(-c2ccc3c(N)n[nH]c3c2)cc(N2C[C@@H](C(=O)NC3CCCCC3)CC[C@H]2C)n1", "note": "[GSK2334470, (3S,6R)-1-[6-(3-Amino-1H-indazol-6-yl)-2-(methylamino)-4-pyrimidinyl]-N-cyclohexyl-6-methyl-3-piperidinecarboxamide]", "values": [
      {"measurement": "synergy with MEKi (trametinib) on growth inhibition", "setting": "WM1361A-iCas9 #1 cells", "result": "synergistic"},
      {"measurement": "synergistic inhibition of cell viability, PDPK1i (GSK2334470) and MEKi (trametinib) combinations", "setting": "[1]; two Cas9-expressed cell lines and four parental human lines (WM1361A, WM1366, SK-MEL-30, SK-MEL-173), 3-day treatment", "result": "Synergistic inhibition"},
      {"measurement": "synergistic inhibition of cell viability, PDPK1i (GSK2334470) and MEKi (trametinib) combinations", "setting": "[2]", "result": "Synergistic inhibition"}
    ]},
    {"smiles": "Cl.Cl.NC1(c2ccc(-c3nc4ccn5c(=O)[nH]nc5c4cc3-c3ccccc3)cc2)CCC1", "note": "[MK-2206 2HCl]", "values": [
      {"measurement": "synergy with MEKi (trametinib)", "setting": "[1]", "result": "reduced synergy and even antagonistic effects"}
    ]}
  ]
}
